Results taken from patent publication EP1432683B9 (Recordati Ireland Limited, priority 2001, dated 2003).
Where a name gives a salt, the structure may show the parent alone.

Legend:
[1] = oral administration; cited from earlier work
[2] = Solubility of crude forms compared with other crude forms; type: physicochemical

In the case of `COC(=O)C1=C(C)NC(C)=C(C(=O)OC(C)(C)CN(C)CCC(c2ccccc2)c2ccccc2)C1c1cccc([N+](=O)[O-])c1` (centres unmarked) [Lercanidipine, methyl 1,1,N-trimethyl-N-(3,3-diphenylpropyl)-2-aminoethyl 1,4-dihyaro-2,6-dimethyl-4-(3-nitrophenyl)pyridine-3,5-dicarboxylate], the “peak plasma levels occurring (time following dosing)” value [1] is given as 2 to 3 h.
For `COC(=O)C1=C(C)NC(C)=C(C(=O)OC(C)(C)CN(C)CCC(c2ccccc2)c2ccccc2)C1c1cccc([N+](=O)[O-])c1` (centres unmarked) [Form (A), lercanidipine hydrochloride], the “solubility compared to other crude forms previously reported” value [2] was “higher solubility”.
